Like-named read-outs stand apart in the source and are kept apart here.
Legend:
[1] = molecular target: T1, baculovirus-expressed ALK (Homo sapiens, UniProt Q9UM73); assay: ALK Kinase Assay (ELISA-type, time-resolved fluorescence); assay type: biochemical
T1 construct: host or cells: baculovirus expression system
Summary of the method: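 Wells were coated with phospholipase C-γ at 10 μg/mL in Tris-buffered saline. Adding 30 ng/ml enzyme started the reaction, which ran at 37° C for 15 minutes before Eu-N1 PT66 antibody detection. Percent inhibition versus log10 concentration gave IC50 by variable-slope fit.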

[2] = molecular target: T2, c-Met (cytoplasmic domain) (Homo sapiens, UniProt P08581); assay: c-Met Kinase Assay (same methods as for ALK, with modifications); assay type: biochemical
T2 construct: 10 ng/mL c-Met (cytoplasmic domain, Invitrogen Corporation #PV3143); purchased Invitrogen Corporation PV3143
T2 sequence (P08581 956-1390 limits assumed): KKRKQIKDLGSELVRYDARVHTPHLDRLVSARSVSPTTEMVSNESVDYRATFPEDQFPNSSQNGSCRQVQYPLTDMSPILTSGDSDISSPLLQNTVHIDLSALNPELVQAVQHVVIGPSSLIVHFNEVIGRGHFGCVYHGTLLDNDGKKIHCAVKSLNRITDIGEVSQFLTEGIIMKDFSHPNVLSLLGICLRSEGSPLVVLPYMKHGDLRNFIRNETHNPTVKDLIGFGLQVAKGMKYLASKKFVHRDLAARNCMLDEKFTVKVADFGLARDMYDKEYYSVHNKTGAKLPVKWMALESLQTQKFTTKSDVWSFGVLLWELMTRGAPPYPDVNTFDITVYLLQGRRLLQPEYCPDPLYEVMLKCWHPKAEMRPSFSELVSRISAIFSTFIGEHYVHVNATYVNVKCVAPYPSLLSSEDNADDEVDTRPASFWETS
Summary of the method: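 Steps: coat wells with PLC-γ (10 μg/mL, Tris-buffered saline); add 10 ng/mL c-Met cytoplasmic domain to initiate; incubate 15 min, 37° C; detect phosphoproduct via Eu-N1 PT66 antibody.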

[3] = 1 μM ATP (Km level), 30 ng/ml ALK, 37° C., 15 minutes, read-out: ALK Activity (ALK kinase inhibition, IC50 class)
[4] = 1 μM ATP (Km level), 10 ng/mL c-Met, read-out: cMet Activity (c-Met kinase inhibition, IC50 class)
[5] = ALK kinase inhibition, 1 μM ATP (Km level), read-out: ALK Activity
[6] = c-Met kinase inhibition, 1 μM ATP (Km level), read-out: cMet Activity
[7] = ALK kinase inhibition, 1 μM ATP, read-out: ALK Activity
[8] = c-Met kinase inhibition, 1 μM ATP, read-out: cMet Activity
[9] = 1 μM ATP (Km level), read-out: ALK Activity (ALK Kinase Inhibition, IC50)
[10] = 1 μM ATP (Km level), read-out: cMet Activity (c-Met Kinase Inhibition, IC50)

T1 sequence (Q9UM73 19-1620): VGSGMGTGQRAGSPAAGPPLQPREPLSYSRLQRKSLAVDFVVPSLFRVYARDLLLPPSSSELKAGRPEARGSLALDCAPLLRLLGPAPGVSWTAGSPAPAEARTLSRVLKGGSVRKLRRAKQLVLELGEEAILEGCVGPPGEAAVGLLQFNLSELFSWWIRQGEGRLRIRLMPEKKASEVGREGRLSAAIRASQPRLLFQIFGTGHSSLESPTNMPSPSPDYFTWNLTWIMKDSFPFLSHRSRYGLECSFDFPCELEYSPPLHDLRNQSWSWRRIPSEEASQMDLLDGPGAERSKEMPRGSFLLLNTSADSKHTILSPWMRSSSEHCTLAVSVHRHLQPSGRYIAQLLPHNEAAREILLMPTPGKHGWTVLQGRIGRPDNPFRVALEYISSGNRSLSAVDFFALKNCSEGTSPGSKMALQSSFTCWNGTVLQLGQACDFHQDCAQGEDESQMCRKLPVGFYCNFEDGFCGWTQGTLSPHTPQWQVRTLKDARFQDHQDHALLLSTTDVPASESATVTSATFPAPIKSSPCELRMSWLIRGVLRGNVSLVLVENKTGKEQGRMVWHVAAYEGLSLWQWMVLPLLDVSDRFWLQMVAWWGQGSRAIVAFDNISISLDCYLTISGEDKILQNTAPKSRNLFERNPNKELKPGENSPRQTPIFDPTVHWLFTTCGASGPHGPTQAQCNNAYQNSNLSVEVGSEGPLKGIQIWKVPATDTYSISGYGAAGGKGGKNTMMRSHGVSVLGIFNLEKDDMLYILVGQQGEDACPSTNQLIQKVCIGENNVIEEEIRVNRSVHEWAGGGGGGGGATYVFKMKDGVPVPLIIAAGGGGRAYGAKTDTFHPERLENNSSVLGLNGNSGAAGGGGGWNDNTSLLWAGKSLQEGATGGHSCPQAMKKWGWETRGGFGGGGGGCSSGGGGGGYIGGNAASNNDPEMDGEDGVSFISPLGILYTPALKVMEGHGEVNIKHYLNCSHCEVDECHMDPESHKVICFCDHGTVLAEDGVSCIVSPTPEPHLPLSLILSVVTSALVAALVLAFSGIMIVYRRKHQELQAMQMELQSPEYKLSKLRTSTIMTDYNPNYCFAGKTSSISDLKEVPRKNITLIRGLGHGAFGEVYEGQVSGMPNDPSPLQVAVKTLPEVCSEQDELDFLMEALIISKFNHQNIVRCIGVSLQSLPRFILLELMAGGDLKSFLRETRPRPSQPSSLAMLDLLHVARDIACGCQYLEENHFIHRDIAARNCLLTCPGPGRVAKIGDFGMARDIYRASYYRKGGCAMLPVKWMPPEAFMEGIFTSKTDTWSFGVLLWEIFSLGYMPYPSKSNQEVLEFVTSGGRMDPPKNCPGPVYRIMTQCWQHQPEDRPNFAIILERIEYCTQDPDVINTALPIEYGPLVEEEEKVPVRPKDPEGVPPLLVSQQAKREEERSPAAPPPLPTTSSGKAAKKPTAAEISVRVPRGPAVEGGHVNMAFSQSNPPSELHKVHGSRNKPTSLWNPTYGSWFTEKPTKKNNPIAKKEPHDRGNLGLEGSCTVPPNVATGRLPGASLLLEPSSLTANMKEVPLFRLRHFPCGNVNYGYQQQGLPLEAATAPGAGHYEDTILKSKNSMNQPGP

In the case of `COCCOc1ccc(Nc2nc(Nc3cc4c(cc3OC)CCN(CCS(C)(=O)=O)CC4)ncc2Cl)c(OC)c1` [Example 1168, 5-Chloro-N*2*-[3-(2-methanesulfonyl-ethyl)-8-methoxy-2,3,4,5-tetrahydro-1H-benzo[d]azepin-7-yl]-N*4*-[2-methoxy-4-(2-methoxy-ethoxy)-phenyl]-pyrimidine-2,4-diamine], the IC50 [1, 3] is reported as < 100 nM and the IC50 [2, 4] is reported as > 10000 nM.

With `COCCN1CCc2ccc(Nc3ncc(Cl)c(Nc4cc(Cl)ccc4OC)n3)cc2CC1` [Example 146, 5-Chloro-N*4*-(5-chloro-2-methoxy-phenyl)-N*2*-[3-(2-methoxy-ethyl)-2,3,4,5-tetrahydro-1H-benzo[d]azepin-7-yl]-pyrimidine-2,4-diamine] the IC50 [1, 5] was < 100 nM and the IC50 [2, 6] was 100 to 1000 nM.

For `CCN1C(=O)CN(C(C)=O)Cc2ccc(Nc3ncc(Cl)c(Nc4ccccc4C(=O)NC)n3)cc21` [Example 1855, 2-[2-(4-Acetyl-1-ethyl-2-oxo-2,3,4,5-tetrahydro-1H-benzo[e][1,4]diazepin-8-ylamino)-5-chloro-pyrimidin-4-ylamino]-N-methyl-benzamide], the IC50 [1, 7] was 1000 to 10000 nM and the IC50 [2, 8] was < 100 nM.

In the case of `CNC(=O)c1cccc(F)c1Nc1nc(Nc2ccc3c(c2)NC(=O)CN(CCOC)C3)ncc1Cl` [Example 1862, 2-{5-Chloro-2-[4-(2-methoxy-ethyl)-2-oxo-2,3,4,5-tetrahydro-1H-benzo[e][1,4]diazepin-8-ylamino]-pyrimidin-4-ylamino}-3-fluoro-N-methyl-benzamide], the IC50 [1, 7] is reported as 100 to 1000 nM and the IC50 [2, 8] is reported as < 100 nM.

In the case of `CNC(=O)c1ccccc1Nc1nc(Nc2ccc3c(c2)C2CCC(C3)N2C(=O)C2CC2)ncc1Cl` (stereo not drawn) [Example 70, 2-[5-Chloro-2-(12-cyclopropanecarbonyl-12-aza-tricyclo[7.2.1.0*2,7*]dodeca-2(7),3,5-trien-4-ylamino)-pyrimidin-4-ylamino]-N-methyl-benzamide], the IC50 [1, 5] is reported as < 100 nM and the IC50 [2, 6] is reported as < 100 nM.

With `CNC(=O)c1c(Cl)sc(Cl)c1Nc1nc(Nc2ccc3c(c2)CN(C)C(=O)CC3)ncc1Cl` [Example 1807, 2,5-Dichloro-4-[5-chloro-2-(2-methyl-3-oxo-2,3,4,5-tetrahydro-1H-benzo[c]azepin-8-ylamino)-pyrimidin-4-ylamino]-thiophene-3-carboxylic acid methylamide] the IC50 [1, 7] was < 100 nM and the IC50 [2, 8] was < 100 nM.

With `CNC(=O)c1ccccc1Nc1nc(Nc2ccc3c(c2)C2CC3CN(S(C)(=O)=O)C2)ncc1Cl` (stereo not drawn) [Example 164, 2-[5-Chloro-2-(10-methanesulfonyl-10-aza-tricyclo[6.3.1.0*2,7*]dodeca-2,4,6-trien-4-ylamino)-pyrimidin-4-ylamino]-N-methyl-benzamide] the IC50 [1, 5] was 100 to 1000 nM and the IC50 [2, 6] was < 100 nM.

With `Cc1cccnc1-c1ccccc1Nc1nc(Nc2ccc3c(c2)C(C)(C)CCC(=O)N3)ncc1Cl` [Example 971, 7-{5-Chloro-4-[2-(3-methyl-pyridin-2-yl)-phenylamino]-pyrimidin-2-ylamino}-5,5-dimethyl-1,3,4,5-tetrahydro-benzo[b]azepin-2-one] the IC50 [1, 9] was < 100 nM and the IC50 [2, 10] was 1000 to 10000 nM.

In the case of `CC1(C)CCCNc2ccc(Nc3ncc(Cl)c(N[C@@H]4CCCC[C@H]4NS(C)(=O)=O)n3)cc21` [Example 392, N-{(1R,2R)-2-[5-Chloro-2-(5,5-dimethyl-2,3,4,5-tetrahydro-1H-benzo[b]azepin-7-ylamino)-pyrimidin-4-ylamino]-cyclohexyl}-methanesulfonamide], the IC50 [1, 5] is reported as < 100 nM and the IC50 [2, 6] is reported as 1000 to 10000 nM.

With `NC(=O)C1C2CCC(C2)C1Nc1nc(Nc2ccc3c(c2)CCN(CC(O)C(F)(F)F)CC3)ncc1Cl` [Example 331, (2-exo,3-exo)-3-{5-Chloro-2-[3-((S)-3,3,3-trifluoro-2-hydroxy-propyl)-2,3,4,5-tetrahydro-1H-benzo[d]azepin-7-ylamino]-pyrimidin-4-ylamino}-bicyclo[2.2.1]heptane-2-carboxylic acid amide] the IC50 [1, 5] was < 100 nM and the IC50 [2, 6] was 100 to 1000 nM.

With `COc1cc2c(cc1Nc1ncc(Cl)c(NC3C4C=CC(C4)C3C(N)=O)n1)NC(=O)CN(Cc1ccccc1)C2` (stereo not drawn) [Example 1652, 3-[2-(4-Benzyl-7-methoxy-2-oxo-2,3,4,5-tetrahydro-1H-benzo[e][1,4]diaz-epin-8-ylamino)-5-chloro-pyrimidin-4-ylamino]-bicyclo[2.2.1]hept-5-ene-2-carboxylic acid amide] the IC50 [1, 7] was < 100 nM and the IC50 [2, 8] was > 10000 nM.

`COc1ccc(Nc2nc(Nc3cc4c(cc3OC)CCN(CC(=O)N(C)C)CC4)ncc2Cl)c(N(C)C)c1` [Example 826, 2-{7-[5-Chloro-4-(2-dimethylamino-4-methoxy-phenylamino)-pyrimidin-2-ylamino]-8-methoxy-1,2,4,5-tetrahydro-benzo[d]azepin-3-yl}-N,N-dimethyl-acetamide] was tested, and the IC50 [1, 9] was < 100 nM and the IC50 [2, 10] was > 10000 nM.

For `NC(=O)[C@@H]1[C@H](Nc2nc(Nc3ccc4c(c3)CCC(N3CCOCC3)CC4)ncc2Cl)[C@H]2C=C[C@@H]1C2` (single isomer, unassigned) [Example 681], the IC50 [1, 9] was < 100 nM and the IC50 [2, 10] was 100 to 1000 nM.

`COc1cc2c(cc1Nc1ncc(Cl)c(Nc3ccccc3S(=O)(=O)N(C)C)n1)CCN(CC(C)(C)O)CC2` [Example 1563, 2-{5-Chloro-2-[3-(2-hydroxy-2-methyl-propyl)-8-methoxy-2,3,4,5-tetrahydro-1H-3-benzazepin-7-ylamino]-pyrimidin-4-ylamino}-N,N-dimethyl-benzenesulfonamide] was tested, and the IC50 [1, 7] was < 100 nM and the IC50 [2, 8] was 1000 to 10000 nM.

For `CCN1C(=O)[C@@H](N(C)C)CCc2c1ccc(Nc1ncc(Cl)c(N[C@H]3[C@@H](C(N)=O)[C@@H]4C=C[C@H]3C4)n1)c2OC` (single isomer, unassigned) [Example 1347], the IC50 [1, 3] was < 100 nM and the IC50 [2, 4] was 1000 to 10000 nM.

In the case of `CCN1CCN(CC)c2cc(Nc3ncc(Cl)c(Nc4ccccc4NS(C)(=O)=O)n3)ccc2C1=O` [Example 423, N-{2-[5-Chloro-2-(1,4-diethyl-5-oxo-2,3,4,5-tetrahydro-1H-benzo[e][1,4]diazepin-8-ylamino)-pyrimidin-4-ylamino]-phenyl}-methanesulfonamide], the IC50 [1, 5] is reported as < 100 nM and the IC50 [2, 6] is reported as 100 to 1000 nM.

`CCNC(=O)c1ccccc1Nc1nc(Nc2cccc3c2OCCCC3(C)C)ncc1Cl` [Example 873, 2-[5-Chloro-2-(5,5-dimethyl-2,3,4,5-tetrahydro-benzo[b]oxepin-9-ylamino)-pyrimidin-4-ylamino]-N-ethyl-benzamide] was tested, and the IC50 [1, 9] was < 100 nM and the IC50 [2, 10] was > 10000 nM.

For `COc1cc2c(cc1Nc1ncc(Cl)c(Nc3ccccc3S(=O)(=O)N3CCCC3)n1)CCN(CC(C)O)CC2` (stereo not drawn) [Example 1553, 1-(7-{5-Chloro-4-[2-(pyrrolidine-1-sulfonyl)-phenylamino]-pyrimidin-2-ylamino}-8-methoxy-1,2,4,5-tetrahydro-3-benzazepin-3-yl)-propan-2-ol], the IC50 [1, 7] was < 100 nM and the IC50 [2, 8] was 100 to 1000 nM.

In the case of `CS(=O)(=O)N[C@@H]1CCCC[C@H]1Nc1nc(Nc2ccc3c(c2)CNC(=O)NC3)ncc1Cl` [Example 226, N-{(1R,2R)-2-[5-Chloro-2-(3-oxo-2,3,4,5-tetrahydro-1H-benzo[e][1,3]diazepin-7-ylamino)-pyrimidin-4-ylamino]-cyclohexyl}-methanesulfonamide], the IC50 [1, 5] is reported as < 100 nM and the IC50 [2, 6] is reported as 1000 to 10000 nM.

For `CNC(=O)c1ccccc1Nc1nc(Nc2ccc3c(c2)C2CC3CN(C(C)C)C2)ncc1Cl` (stereo not drawn) [Example 158, 2-[5-chloro-2-(10-isopropyl-10-aza-tricyclo[6.3.1.0*2,7*]dodeca-2,4,6-trien-4-ylamino)-pyrimidin-4-ylamino]-N-methyl-benzamide], the IC50 [1, 5] was < 100 nM and the IC50 [2, 6] was 100 to 1000 nM.

`COCCN1CCc2ccc(Nc3ncc(Cl)c(Nc4c(F)cccc4C(=O)NCC#N)n3)cc2CC1` [Example 1079, 2-{5-Chloro-2-[3-(2-methoxy-ethyl)-2,3,4,5-tetrahydro-1H-benzo[d]azepin-7-ylamino]-pyrimidin-4-ylamino}-N-cyanomethyl-3-fluoro-benzamide] was tested, and the IC50 [1, 3] was < 100 nM and the IC50 [2, 4] was < 100 nM.

With `COCCN1CCc2ccc(Nc3ncc(Cl)c(Nc4ccccc4-c4cccc(C)n4)n3)cc2CC1` [Example 1009, 5-Chloro-N*2*-[3-(2-methoxy-ethyl)-2,3,4,5-tetrahydro-1H-benzo[d]azepin-7-yl]-N*4*-[2-(6-methyl-pyridin-2-yl)-phenyl]-pyrimidine-2,4-diamine] the IC50 [1, 9] was < 100 nM and the IC50 [2, 10] was 100 to 1000 nM.

With `CNC(=O)c1cccc(F)c1Nc1nc(Nc2ccc3c(c2)N(C(C)C)CCCO3)ncc1Cl` [Example 1734, 2-[5-Chloro-2-(9-isopropyl-6,7,8,9-tetrahydro-5-oxa-9-aza-benzocyclohepten-2-ylamino)-pyrimidin-4-ylamino]-3-fluoro-N-methyl-benzamide] the IC50 [1, 7] was < 100 nM and the IC50 [2, 8] was < 100 nM.

For `COCCN1CCc2cc(Nc3ncc(Cl)c(NC4C5C=CC(C5)C4c4nc5ccccc5[nH]4)n3)c(OC)cc2CC1` (stereo not drawn) [Example 610, N*4*-[(2-exo-3-exo)-3-(1H-Benzoimidazol-2-yl)-bicyclo[2.2.1]hept-5-en-2-yl]-5-chloro-N*2*-[8-methoxy-3-(2-methoxy-ethyl)-2,3,4,5-tetrahydro-1H-benzo[d]azepin-7-yl]-pyrimidine-2,4-diamine], the IC50 [1, 9] was 1000 to 10000 nM and the IC50 [2, 10] was > 10000 nM.

From patent publication US8148391B2 (Cephalon, Inc., priority 2006, dated 2012)
